# Experiments:
# [1] = Example 1: flush rating (Global Flush Severity Scale) after DMF without aspirin, with swallowed aspirin or with intraoral aspirin; format: in vivo, human; details: MS patients
# Description: Seven human patients with multiple sclerosis who were already taking dimethyl fumarate and had experienced flushing side effects from dimethyl fumarate were recruited for this study. […] In Period I, each patient was given their standard dose of 240 mg dimethyl fumarate orally. Each patient was asked to rate his or her flush on the Global Flush Severity Scale (GFSS) (see Paolini et al. Int. J. Clin. Pract. 62(6):896-904 (2008)), when the flush completely resolved. The Global Flushing Severity Score measures, overall, in the previous 24 hours, how each patient rates the flushing symptoms, including redness, warmth, tingling, and itchiness of the skin. […] After the flush completely resolved, then each patient recorded his or her GFSS flush rating. Not until at least two days later did Period III start. At Period III, each patient was asked to not swallow the orally administered aspirin (162 mg) but to allow the aspirin to be absorbed through the oral mucosa. The aspirin was in powdered form and the remaining aspirin in the mouth was washed out with water. Afterwards, 240 mg of dimethyl fumarate was swallowed with a glass of water. Still, the flush was rated (GFSS) after it was resolved.
# [2] = Example 2: flushing assessment in crossover study, VTS-72 vs Tecfidera; format: in vivo, human; details: Example 2 conclusion, co-administration of aspirin
# Description: This was a single center, pilot, comparative bioavailability, open-label, randomized, single-dose, 2-period, 2-sequence, crossover study under fasting conditions. A total of 12 healthy adult male or female volunteers were included in this pilot study. For each period, subjects were confined from at least 10 hours before dosing until 12 hours post-dose. There was a washout of 7 days or more between doses. The washout period could be increased for logistical considerations. Participation of each subject in this study lasted approximately 9 days. Subjects were administered each treatment according to the 2-period, 2-sequence, block randomization scheme.
# Treatment A: Subjects were required not to wear dentures or to remove their tongue piercing at the time of dosing. The delayed-release capsules were placed on the subject's tongue. Subjects were instructed to suck the delayed-release capsule until the acetylsalicylic acid coating was dissolved or up to a maximum of 1 minute after the delayed-release capsule had been placed on the subject's tongue. […]
# Flushing (including redness, warmth, tingling, and itchiness of the skin) was assessed at 0.5, 1, 1.5, 2, 2.5, 3, 3.5, and 4 hours post-dose using the question and the rating scale presented in Section—Flushing Assessment below. […] Flushing symptoms were recorded as adverse events.
# Flushing was assessed using the question below. […]
# [3] = Example 2: comparative bioavailability, monomethyl fumarate plasma pharmacokinetics; format: in vivo, human; details: normalized to 180 mg DMF
# Description: The delayed-release capsules were placed on the subject's tongue. Subjects were instructed to suck the delayed-release capsule until the acetylsalicylic acid coating was dissolved or up to a maximum of 1 minute after the delayed-release capsule had been placed on the subject's tongue. The delayed-release capsule should not be chewed, bitten, or swallowed during that 1-minute period or until the coating is dissolved; only the saliva could be swallowed. The subject was instructed to give a hand sign once the acetylsalicylic acid coating was dissolved (the capsule should feel and taste different). […]
# [4] = Example 3: flushing side effect, VTS-72 (205 mg DMF) vs Tecfidera; format: in vivo, human; details: Example 3, co-administration of aspirin
# Description: Flushing (including redness, warmth, tingling, and itchiness of the skin) was assessed at 0.5, 1, 1.5, 2, 2.5, 3, 3.5, and 4 hours post-dose using the question and the rating scale presented in Section—Flushing Assessment below. Half grades were not assigned. Flushing symptoms were recorded as adverse events.
# Flushing was assessed using the question below. The question was asked by the clinical staff: • Question 1: Overall, at this moment, how would you rate your flushing symptoms (including redness, warmth, tingling, and itchiness of the skin)? Score from 0 to 10 (none 0, mild 1 to 3, moderate 4 to 6, severe 7 to 9, extreme 10).
# 16 healthy individuals were enrolled for this study.
# [5] = pretreatment with 325 mg aspirin for 4 days; Sheikh et al., Clin Ther. 2013; cited from earlier work
smiles,measurement,setting,value
"CC(=O)Oc1ccccc1C(=O)O [aspirin, acetylsalicylic acid]",reduction of severity of flush (GFSS) as compared to Period I,[1]; Period II: 162 mg aspirin orally swallowed followed by 240 mg dimethyl fumarate,33%
same,reduction of severity of flush (GFSS) as compared to Period I,"[1]; Period III: 162 mg aspirin absorbed through the oral mucosa, then 240 mg dimethyl fumarate",52%
same,reduction of the flushing side effect,[2],more than 35%
same,impact of co-administration of aspirin on the Cmax of DMF,[3],did not have significant impact
same,reduction of the flushing side effect,[4],about 61%
same,effect of aspirin pretreatment on the pharmacokinetic profile of DMF,[5],did not affect

# Reference: US20210251910A1, “FUMARIC ACID COMPOSITIONS WITH INCREASED BIOAVAILABILITY AND REDUCED SIDE EFFECTS” (Vitalis LLC, priority 2018, published 2021)
